From patent US12201671B2, “Polypeptides for treatment of cancer” (Saint Joseph's University, priority 2019, dated 2025)
Where no end group is shown, it is not given here. The star is where a group is joined. Biotin = O=C1N[C@H]2[C@H](CS[C@H]2CCCCC(=O)*)N1

T1: ERα (Homo sapiens, UniProt P03372)
T1 sequence (P03372 1-595): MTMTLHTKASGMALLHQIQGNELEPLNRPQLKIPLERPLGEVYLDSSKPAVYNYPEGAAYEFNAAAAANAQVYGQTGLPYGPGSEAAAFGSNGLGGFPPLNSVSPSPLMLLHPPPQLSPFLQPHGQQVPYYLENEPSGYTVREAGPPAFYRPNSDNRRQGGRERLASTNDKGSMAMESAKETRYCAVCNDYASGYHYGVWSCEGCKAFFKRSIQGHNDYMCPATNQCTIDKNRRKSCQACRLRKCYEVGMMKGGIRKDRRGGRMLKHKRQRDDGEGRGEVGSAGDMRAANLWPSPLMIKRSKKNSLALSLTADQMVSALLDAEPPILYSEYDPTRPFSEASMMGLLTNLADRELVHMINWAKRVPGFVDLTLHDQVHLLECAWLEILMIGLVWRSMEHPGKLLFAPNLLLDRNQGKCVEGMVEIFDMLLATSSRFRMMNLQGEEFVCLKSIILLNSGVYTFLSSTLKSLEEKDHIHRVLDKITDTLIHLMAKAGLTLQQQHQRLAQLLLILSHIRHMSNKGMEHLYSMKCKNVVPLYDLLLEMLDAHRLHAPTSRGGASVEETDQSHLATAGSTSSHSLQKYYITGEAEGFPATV

T2: Estrogen Receptor α (Homo sapiens, UniProt P03372)
T2 sequence (P03372 1-595): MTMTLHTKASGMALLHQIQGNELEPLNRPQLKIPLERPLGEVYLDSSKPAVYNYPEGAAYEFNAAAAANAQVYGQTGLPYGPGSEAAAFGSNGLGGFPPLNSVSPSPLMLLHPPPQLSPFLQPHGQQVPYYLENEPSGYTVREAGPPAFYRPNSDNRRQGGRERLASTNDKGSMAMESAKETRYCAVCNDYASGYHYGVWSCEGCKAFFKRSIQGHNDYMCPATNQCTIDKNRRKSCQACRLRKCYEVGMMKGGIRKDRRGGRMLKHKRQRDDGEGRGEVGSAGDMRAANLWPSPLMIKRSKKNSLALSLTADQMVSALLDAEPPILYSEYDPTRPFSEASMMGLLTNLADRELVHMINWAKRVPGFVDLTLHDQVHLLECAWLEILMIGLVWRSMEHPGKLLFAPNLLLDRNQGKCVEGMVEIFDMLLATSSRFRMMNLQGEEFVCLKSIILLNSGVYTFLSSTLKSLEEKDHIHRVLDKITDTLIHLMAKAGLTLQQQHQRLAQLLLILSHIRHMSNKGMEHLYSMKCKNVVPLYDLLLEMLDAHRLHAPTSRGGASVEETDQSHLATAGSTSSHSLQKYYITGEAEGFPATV


Columns and labels:
[1] = tested on: BT549 cells; test: Apoptosis assays (Muse Caspase 3/7 and Annexin V); assay type: cell-based; conditions: BT549, 20 μM, 7 days
Description: (§1) Apoptosis was evaluated using both a Muse Caspase 3/7 kit (cat #MCH100108, EMD Millipore) and Muse Annexin V kit (Millipore cat #). Cells were treated for 7 days as described elsewhere herein, at the end of the 7 day dosing period, floating cells were collected and attached cells were washed 1× with PBS and then trypsinized with 0.05% trypsin. Cells were collected and combined with the floating cells. Cells were then counted and diluted to 20,000 cells/mL. For the caspase assay, 50 μL of cells were then incubated with the Muse Caspase 3/7 reagent at 37° C. for 30 min. After incubation 5 μL of 7-ADD dye was added and incubated for 5 min at room temperature. Cells were then analyzed on the Muse Cell Analyzer (Millipore). For the Annexin V assay, 100 μL of cells was then added to 100 μL of Annexin V reagent for 30 min at room temperature. Cells were then analyzed on the Muse Cell Analyzer (Millipore).

[2] = tested on: MDA-MB-231 cells; test: Apoptosis assays (Muse Caspase 3/7 and Annexin V); assay type: cell-based; conditions: MDA-MB-231, 20 μM, 7 days
Description: as §1

[3] = tested on: MCF7 cells; test: Cell count after 7 day treatment with and without estradiol; assay type: cell-based; conditions: MCF7, 20 μM, 7 days, in the presence of estrogen
Description: (§2) MCF7 cells were switched to phenol free DMEM (cat #, 11054-020, Life Technologies), with 10% charcoal stripped FBS (cat #A33821-01, Life Technologies), 24 hrs prior to plating. After the starvation period, the cells were plated onto mm plates at cells/plate and allowed to adhere overnight. The next day cells were dosed with 20 μM of CAPER peptides along with a DMSO and TAT only controls with and without estradiol (E2) (cat #, Sigma). Cells were pre-treated with the peptide 4 hrs before the E2 was added. Cells were dosed daily for 7 days. At the end of the 7 day dosing period, floating cells were collected and adherent cells were trypsinized and counted via a hemocytometer

[4] = tested on: BT549 cells; test: Cell cycle assay, nocodazole synchronized cells; assay type: cell-based; conditions: BT549, 20 μM, 7 days
Description: (§3) MDA-MB-231 and BT549 cells were synchronized using nocodazole (cat #Sigma-Aldrich) for 24 hours. The floating cells were then aspirated off and the plate was rinsed with media to collect the loosely attached cells (G2/M fraction). The cells were then plated as described above. A fraction of the treated cells was processed for cell cycle to confirm synchronization. Cells were then treated for 7 days as described above, at the end of the 7 day dosing period, floating cells were collected and attached cells were washed 1× with PBS and then trypsinized with 0.05% trypsin. Cells were collected and combined with the floating cells. Cells were counted and diluted according to the Muse Cell Cycle Kit (cat #MCH100106, EMD Millipore) instructions and samples were then read on the Muse Cell Analyzer.

[5] = tested on: MDA-MB-231 cells; test: Cell cycle assay, nocodazole synchronized cells; assay type: cell-based; conditions: MDA-MB-231, 20 μM, 7 days
Description: as §3

[6] = tested on: BT549 cells; test: Cell count after 7 day treatment; assay type: cell-based; conditions: BT549, 20 μM daily, 7 days, vs DMSO and TAT controls
Description: (§4) MDA-MB-231, BT549, and MCF10A cells were plated onto 10 cm plates at 50,000 cells per plate, 100,000 cells per plate and 25,000 cells, respectively. The cells were allowed to adhere overnight, the next day cells were with 20 μM of CAPER peptides along with a DMSO and TAT only controls. Cells were dosed daily for 7 days. At the end of the 7 day dosing period, floating cells were collected and adherent cells were trypsinized and counted via a hemocytometer.

[7] = tested on: MDA-MB-231 cells; test: Cell count after 7 day treatment; assay type: cell-based; conditions: MDA-MB-231, 20 μM daily, 7 days, vs DMSO and TAT controls
Description: as §4

[8] = tested on: MCF10A cells; test: Cell count after 7 day treatment; assay type: cell-based; conditions: MCF10A non-tumorigenic, 20 μM daily, 7 days, vs DMSO and TAT controls
Description: as §4

[9] = target: T3, c-Jun (Homo sapiens, UniProt P05412); test: Binding kinetics by biolayer interferometry (BLI), Octet HTX; conditions: 1:1 model; for koff: read-out: K off, binding to c-Jun; for kon: read-out: K on, binding to c-Jun
T3 construct: purchased Abcam
T3 sequence (P05412 whole entry): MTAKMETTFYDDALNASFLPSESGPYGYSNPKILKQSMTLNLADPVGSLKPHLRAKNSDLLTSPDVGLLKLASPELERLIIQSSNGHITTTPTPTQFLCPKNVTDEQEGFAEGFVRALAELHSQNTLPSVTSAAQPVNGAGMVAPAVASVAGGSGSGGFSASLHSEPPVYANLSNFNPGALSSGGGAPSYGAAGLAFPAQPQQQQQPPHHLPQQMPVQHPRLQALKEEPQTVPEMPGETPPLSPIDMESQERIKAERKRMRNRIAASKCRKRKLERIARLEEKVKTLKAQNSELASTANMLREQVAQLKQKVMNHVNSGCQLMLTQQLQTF
Description: The binding kinetics of the peptides and full-length recombinant CAPER (R&D Systems, Minneapolis, MN) with the c-Jun (Abcam, Cambridge, MA) were determined using biolayer interferometry (BLI) on the Octet HTX system (Pall ForteBio, Fremont, CA). Amine Reactive 2nd Generation biosensors (cat #18-5092, Pall ForteBio) were activated with 1-Ethyl-3-[3-dimethylaminopropyl] carbodiimide hydrochloride and N-hydroxysulfosuccinimide (EDC/NHS) (Amine Coupling Kit II, Cat #ACK-001-025, Sierra Sensors, Billerica, MA) and conjugated with an anti-his tag antibody. The reaction was then quenched with 1M ethanolamine (Amine Coupling Kit II, Cat #ACK-001-025, Sierra Sensors). His-tagged recombinant c-Jun was then bound to the tips. The peptides were tested at a series of 2-fold dilutions including a buffer blank. The binding of full-length recombinant CAPER was also tested. Association and dissociation steps were performed for 900s each in 1×HBS-EP+ buffer (cat #BR100669, GE Healthcare Lifesciences, Pittsburgh, PA) supplemented with 450 mM NaCl (Sigma). The background was subtracted from each run and kinetics data was analyzed using ForteBio's Data Analysis Software version 10.0.3.1 using a 1:1 model.

[10] = tested on: MCF10A cells; test: Apoptosis assay (Annexin V); assay type: cell-based; conditions: 20 μM, 7 days, vs DMSO and TAT controls
Description: as §1

[11] = target: T1, ERα; test: Inhibition of full-length recombinant CAPER binding to ERα
[12] = target: T2, Estrogen Receptor α; test: Binding kinetics (BLI) to Estrogen Receptor α; conditions: for koff: read-out: K off, binding to Estrogen Receptor α; for kon: read-out: K on, binding to Estrogen Receptor α
[13] = tested on: MCF7 cells; test: Apoptosis assays (Muse Caspase 3/7 and Annexin V); assay type: cell-based; conditions: MCF7, 20 μM, 7 days, in the presence of estrogen
Description: as §2, §1

[14] = target: T3, c-Jun; test: BLI competition assay: full-length CAPER binding to peptide-saturated c-Jun; conditions: c-Jun saturated with peptide at 10x KD; compared to CAPER binding without peptide
Description: Competition assays were determined using BLI on the Octet HTX system (Pall ForteBio, Fremont, CA). Amine Reactive 2nd Generation biosensors (cat #18-5092, Pall ForteBio) were activated with 1-Ethyl-3-[3-dimethylaminopropyl] carbodiimide hydrochloride and N-hydroxysulfosuccinimide (EDC/NHS) (Amine Coupling Kit II, Cat #ACK-001-025, Sierra Sensors, Billerica, MA) and conjugated with an anti-his tag antibody. The reaction was then quenched with 1M ethanolamine (Amine Coupling Kit II, Cat #ACK-001-025, Sierra Sensors). Recombinant c-Jun containing a his-tag was then bound to the tips. The peptides were allowed to saturate the receptor at a concentration of 10× the KD of each peptide. After receptor saturation binding of full-length CAPER to the receptor was measured and the signal was compared back to full-length CAPER binding to the receptor in the absence of the peptide. Binding steps were performed for 900s each in 1× HBS-EP+ buffer (cat #BR100669, GE Healthcare Lifesciences, Pittsburgh, PA) supplemented with 450 mM NaCl (Sigma). The background was subtracted from each run and the signal was represented as a % inhibition compared to full-length CAPER binding in the absence of the peptide.

[15] = his-tagged c-Jun on anti-his tips

| Molecule | Early apoptotic and apoptotic dead cells [1] | Live cells [1] | Early apoptotic and apoptotic dead cells [2] | Live cells [2] | Cell number [3] | Effect on cell cycle [4] | Effect on cell cycle [5] | Cell number [6] | Cell number [7] | Cell count [8] | koff [9] [s⁻¹] | kon [9] [M⁻¹ s⁻¹] | Apoptotic cells [10] | Binding of full-length recombinant CAPER to ERα [11] | koff [12] [s⁻¹] | kon [12] [M⁻¹ s⁻¹] | Early apoptotic and apoptotic dead cells [13] | Live cells [13] | KD, binding to c-Jun [9, 15] | other results |
| --- | --- | --- | --- | --- | --- | --- | --- | --- | --- | --- | --- | --- | --- | --- | --- | --- | --- | --- | --- | --- |
| Biotin-RLQLMARLAEGTGLQIPPAAQQALQMSGSLAFGAVADLQTRLSQQ (N-terminus assumed) [CAPER peptide HCC1.3] | significant increase | significant decrease | significant increase | significant decrease | significant decrease | no effect | no effect | significant decrease | significant decrease | no significant change | 0.000337 | 37900 | no significant change | alter the binding | 0.000115 | 25400 | significant increase | significant decrease | – | – |
| Biotin-RLQLMARLAEGTGLQIPPAAQQALQMSGSLAFGAVAEFSFVIDLQ (N-terminus assumed) [CAPER peptide HCC1.4] | significant increase | significant decrease | significant increase | significant decrease | significant decrease | no effect | no effect | significant decrease | significant decrease | no significant change | 0.00098 | 38300 | no significant change | alter the binding | 0.00172 | 57100 | significant increase | significant decrease | – | – |
| VGDALQGLRLFSTQASIGAQMEQLAAQPLRAGQMLQLAQASPLRT [CAPER scrambled peptide, scrambled control peptide, reference compound] | – | – | – | – | – | – | – | – | – | – | – | – | – | – | – | – | – | – | could not be determined | Inhibition of full-length recombinant CAPER binding to c-Jun [14]: no significant change |
| YGRKKRRQRRR [TAT only control, reference compound] | – | – | – | – | – | – | – | – | – | – | – | – | – | – | – | – | – | – | could not be determined | – |
| Recombinant Full-Length CAPER HCC1.3: full-length recombinant CAPER (R&D Systems), isoform HCC1.3 (protein) MADDIDIEAMLEAPYKKDENKLSSANGHEERSKKRKKSKSRSRSHERKRSKSKERKRSRDRERKKSKSRERKRSRSKERRRSRSRSRDRRFRGRYRSPYSGPKFNSAIRGKIGLPHSIKLSRRRSRSKSPFRKDKSPVREPIDNLTPEERDARTVFCMQLAARIRPRDLEEFFSTVGKVRDVRMISDRNSRRSKGIAYVEFVDVSSVPLAIGLTGQRVLGVPIIVQASQAEKNRAAAMANNLQKGSAGPMRLYVGSLHFNITEDMLRGIFEPFGRIESIQLMMDSETGRSKGYGFITFSDSECAKKALEQLNGFELAGRPMKVGHVTERTDASSASSFLDSDELERTGIDLGTTGRLQLMARLAEGTGLQIPPAAQQALQMSGSLAFGAVADLQTRLSQQTEASALAAAASVQPLATQCFQLSNMFNPQTEEEVGWDTEIKDDVIEECNKHGGVIHIYVDKNSAQGNVYVKCPSIAAAIAAVNALHGRWFAGKMITAAYVPLPTYHNLFPDSMTATQLLVPSRR | – | – | – | – | – | – | – | – | – | – | – | – | – | – | – | – | – | – | – | K off, binding to c-Jun [9]: 5.66e-05 s⁻¹; K on, binding to c-Jun [9]: 312000 M⁻¹ s⁻¹; Kd [9, 15]: 0.18 nM; K off, binding to Estrogen Receptor α [12]: 2.34e-05 s⁻¹; K on, binding to Estrogen Receptor α [12]: 937000 M⁻¹ s⁻¹ |
